Patent US7192606B2, “Drugs for treating viral infections” (priority 2004, dated 2007)
≈ marks a conversion by molar mass, not a printed value. Like-named read-outs stand apart in the source and are kept apart here.

Experiments:
[1] = system: cowpox virus; test: microbe, parasite or virus in culture; type: cell-based; details: HFF
[2] = system: cowpox virus; details: cited from earlier work
[3] = Neutral Red Uptake Assay (toxicity); details: human, stationary HFF cells
[4] = system: cowpox virus; type: cell-based
[5] = system: variola virus (smallpox) isolates; type: cell-based
[6] = system: monkey (Vero) cells
[7] = system: uninfected cells
[8] = system: Caco-2 cells; test: Caco-2 cell permeability assay; details: for A side % Remaining at 2 hrs: Caco-2, A side; for B side % Remaining at 2 hrs: Caco-2, B side; for A-B: Caco-2, apical to basolateral; for A-B / B-A: 25 microM, 2 hours, 37° C.; for B-A: Caco-2, basolateral to apical
[9] = system: stationary HFF cells; test: Neutral Red Uptake Assay (toxicity); details: Neutral Red Uptake
[10] = Parallel Artificial Membrane Permeability Assay (PAMPA)-MS; details: hexadecane membrane layer, 4 hr, 50 microM in PBS, LC-MS
[11] = Caco-2 cell permeability assay; details: human, Caco-2
[12] = system: vaccinia virus; type: cell-based
[13] = system: cowpox virus; type: cell-based; remark: listed apart in the source
[14] = system: cowpox virus; set-up: species or system BALB/c mice; details: mouse, in vivo

Nc1ccn(C[C@@H](CO)OCP(=O)(O)O)c(=O)n1 [CDV, reference compound]
EC90 [1]: 18.7 µg/mL (≈ 67 µM)
active concentration in these cells [2]: about 12.0 microgram/mL
CC50 [3]: > 100 µg/mL

O=S(=O)(NC12CC3CC(CC(C3)C1)C2)NS(=O)(=O)NC12CC3CC(CC(C3)C1)C2 [Example 1, N,N^1-Bis(tricyclo[3.3.1.1^3,7]dec-1-yl)imidodisulfamide]
plaques at 1.0 microgram/mL [4]: tiny relative to the untreated ones
plaques at 3.0 microgram/mL [4]: nearly completely eliminated
EC50 ([4]; 3 days): 2.0 microgram/mL
average EC50 [5]: 0.10 microgram/mL
concentration up to which cell monolayers were healthy [6]: ≥ 30 microgram/mL
CC50 [7]: 43.0 microgram/mL
A side % Remaining at 2 hrs [8]: 85.05%
B side % Remaining at 2 hrs [8]: 105.39%
Ratio ([8]; Caco-2, B-A / A-B): 2.1
A-B [8]: 9.07
B-A [8]: 18.85
CC50 [9]: 78.9 microgram/mL
permeability [10]: 0.43 ×10⁻⁶ cm/s

CC(C)NCC(O)COc1cccc2ccccc12 (stereo not drawn) [Propranolol, reference compound]
efflux ratio at 2 h, 25 microM [11]: 1.9
A side % Remaining at 2 hrs [8]: 68.60%
B side % Remaining at 2 hrs [8]: 88.38%
A-B [8]: 39.03
B-A [8]: 72.42

Sodium N,N^1-(Tricyclo[3.3.1.1^3,7]dec-1-yl)imidodisulfamide [Example 11]
EC50 [12]: EC50: 0.04 microgram/mL;
EC90 [12]: EC90: 0.11 microgram/mL;
EC50 [13]: EC50: 0.50 microgram/mL;
EC90 [13]: EC90: 2.10 microgram/mL;
Lung titer on Day 3 [14]: 6.6±1.3
CC50 [9]: 87.6 microgram/mL
